Patent US6358885B1, “Substituted phenylheterocyclic herbicides” (Mississippi State University, priority 1992, dated 2002)

Tests used:
Assay in all cases: Test B preemergence/postemergence greenhouse plant response rating 0 to 10
barley = type: in vivo, Hordeum vulgare; conditions: 0 to 10 scale
Method in brief: (§1)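 Planted seeds are treated preemergence with compound dissolved in a non-phytotoxic solvent, while postemergence applications go onto plants of two to eighteen cm. Plants stay in the greenhouse twelve to sixteen days and are then rated visually relative to controls.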

barnyardgrass = type: in vivo, Echinochloa crus-galli; conditions: 0 to 10 scale
Method in brief: as §1

bedstraw = type: in vivo, Galium aparine; conditions: 0 to 10 scale
Method in brief: as §1

blackgrass = type: in vivo, Alopecurus myosuroides; conditions: 0 to 10 scale
Method in brief: as §1

cheatgrass = type: in vivo, Bromus secalinus; conditions: 0 to 10 scale
Method in brief: as §1

chickweed = type: in vivo, Stellaria media; conditions: 0 to 10 scale
Method in brief: as §1

cocklebur = type: in vivo, Xanthium pensylvanicum; conditions: 0 to 10 scale
Method in brief: as §1

corn = type: in vivo, Zea mays; conditions: 0 to 10 scale
Method in brief: as §1

cotton = type: in vivo, Gossypium hirsutum; conditions: 0 to 10 scale
Method in brief: as §1

crabgrass = type: in vivo, Digitaria spp.; conditions: 0 to 10 scale
Method in brief: as §1

giant foxtail = type: in vivo, Setaria faberii; conditions: 0 to 10 scale
Method in brief: as §1

lambsquarters = type: in vivo, Chenopodium album; conditions: 0 to 10 scale
Method in brief: as §1

morningglory = type: in vivo, Ipomoea hederacea; conditions: 0 to 10 scale
Method in brief: as §1

rape = type: in vivo, Brassica napus; conditions: 0 to 10 scale
Method in brief: as §1

rice = type: in vivo, Oryza sativa; conditions: 0 to 10 scale
Method in brief: as §1

sorghum = type: in vivo, Sorghum bicolor; conditions: 0 to 10 scale
Method in brief: as §1

soybean = type: in vivo, Glycine max; conditions: 0 to 10 scale
Method in brief: as §1

sugar beet = type: in vivo, Beta vulgaris; conditions: 0 to 10 scale
Method in brief: as §1

velvetleaf = type: in vivo, Abutilon theophrasti; conditions: 0 to 10 scale
Method in brief: as §1

wheat = type: in vivo, Triticum aestivum; conditions: 0 to 10 scale
Method in brief: as §1

wild buckwheat = type: in vivo, Polygonum convolvulus; conditions: POSTEMERGENCE, 0 to 10 scale
Method in brief: as §1

wild oat = type: in vivo, Avena fatua; conditions: 0 to 10 scale
Method in brief: as §1

purple nutsedge = type: in vivo, Cyperus rotundus; conditions: 0 to 10 scale
Method in brief: as §1

CCCCN1C(=O)COc2cc(F)c(-c3nn4c(c3Cl)CCCC4)cc21 [Compound 57]
6: Plant response rating, Bedstraw (bedstraw; PREEMERGENCE, Rate 10 g/ha) | Plant response rating, Blackgrass (blackgrass; PREEMERGENCE, Rate 50 g/ha) | Plant response rating, Cheatgrass (cheatgrass; POSTEMERGENCE, Rate 50 g/ha) | Plant response rating, Chickweed (chickweed; PREEMERGENCE, Rate 10 g/ha) | Plant response rating, Giant foxtail (giant foxtail; POSTEMERGENCE, Rate 50 g/ha) | Plant response rating, Soybean (soybean; POSTEMERGENCE, Rate 10 g/ha) | Plant response rating, Velvetleaf (velvetleaf; POSTEMERGENCE, Rate 10 g/ha)
8: Plant response rating, Bedstraw (bedstraw; PREEMERGENCE, Rate 50 g/ha) | Plant response rating, Chickweed (chickweed; POSTEMERGENCE, Rate 10 g/ha) | Plant response rating, Soybean (soybean; POSTEMERGENCE, Rate 50 g/ha)
0: Plant response rating, Barley (barley; PREEMERGENCE, Rate 10 g/ha) | Plant response rating, Barley (barley; PREEMERGENCE, Rate 50 g/ha) | Plant response rating, Barnyardgrass (barnyardgrass; PREEMERGENCE, Rate 10 g/ha) | Plant response rating, Cocklebur (cocklebur; PREEMERGENCE, Rate 10 g/ha) | Plant response rating, Corn (corn; PREEMERGENCE, Rate 50 g/ha) | Plant response rating, Cotton (cotton; PREEMERGENCE, Rate 10 g/ha) | Plant response rating, Crabgrass (crabgrass; PREEMERGENCE, Rate 10 g/ha) | Plant response rating, Crabgrass (crabgrass; PREEMERGENCE, Rate 50 g/ha) | Plant response rating, Giant foxtail (giant foxtail; PREEMERGENCE, Rate 10 g/ha) | Plant response rating, Rape (rape; PREEMERGENCE, Rate 50 g/ha) | Plant response rating, Rice (rice; PREEMERGENCE, Rate 50 g/ha) | Plant response rating, Sorghum (sorghum; PREEMERGENCE, Rate 50 g/ha) | Plant response rating, Soybean (soybean; PREEMERGENCE, Rate 50 g/ha) | Plant response rating, Nutsedge (purple nutsedge; PREEMERGENCE, Rate 50 g/ha)
3: Plant response rating, Barnyardgrass (barnyardgrass; POSTEMERGENCE, Rate 10 g/ha) | Plant response rating, Barnyardgrass (barnyardgrass; POSTEMERGENCE, Rate 50 g/ha) | Plant response rating, Barnyardgrass (barnyardgrass; PREEMERGENCE, Rate 50 g/ha) | Plant response rating, Blackgrass (blackgrass; PREEMERGENCE, Rate 10 g/ha) | Plant response rating, Cheatgrass (cheatgrass; PREEMERGENCE, Rate 10 g/ha) | Plant response rating, Cocklebur (cocklebur; PREEMERGENCE, Rate 50 g/ha) | Plant response rating, Corn (corn; POSTEMERGENCE, Rate 10 g/ha) | Plant response rating, Crabgrass (crabgrass; POSTEMERGENCE, Rate 50 g/ha) | Plant response rating, Rice (rice; POSTEMERGENCE, Rate 10 g/ha) | Plant response rating, Rice (rice; POSTEMERGENCE, Rate 50 g/ha)
7: Plant response rating, Blackgrass (blackgrass; POSTEMERGENCE, Rate 50 g/ha) | Plant response rating, Wheat (wheat; POSTEMERGENCE, Rate 10 g/ha) | Plant response rating, Wheat (wheat; POSTEMERGENCE, Rate 50 g/ha) | Plant response rating, Wild oat (wild oat; POSTEMERGENCE, Rate 50 g/ha)
9: Plant response rating, Bedstraw (bedstraw; POSTEMERGENCE, Rate 10 g/ha) | Plant response rating, Bedstraw (bedstraw; POSTEMERGENCE, Rate 50 g/ha) | Plant response rating, Chickweed (chickweed; PREEMERGENCE, Rate 50 g/ha) | Plant response rating, Cocklebur (cocklebur; POSTEMERGENCE, Rate 10 g/ha) | Plant response rating, Cocklebur (cocklebur; POSTEMERGENCE, Rate 50 g/ha) | Plant response rating, Lambsquarter (lambsquarters; POSTEMERGENCE, Rate 10 g/ha) | Plant response rating, Sugar beet (sugar beet; PREEMERGENCE, Rate 50 g/ha) | Plant response rating, Velvetleaf (velvetleaf; POSTEMERGENCE, Rate 50 g/ha)
2: Plant response rating, Cotton (cotton; PREEMERGENCE, Rate 50 g/ha) | Plant response rating, Crabgrass (crabgrass; POSTEMERGENCE, Rate 10 g/ha) | Plant response rating, Giant foxtail (giant foxtail; PREEMERGENCE, Rate 50 g/ha) | Plant response rating, Sorghum (sorghum; POSTEMERGENCE, Rate 10 g/ha) | Plant response rating, Wheat (wheat; PREEMERGENCE, Rate 50 g/ha) | Plant response rating, Nutsedge (purple nutsedge; POSTEMERGENCE, Rate 10 g/ha)
4: Plant response rating, Barley (barley; POSTEMERGENCE, Rate 10 g/ha) | Plant response rating, Barley (barley; POSTEMERGENCE, Rate 50 g/ha) | Plant response rating, Blackgrass (blackgrass; POSTEMERGENCE, Rate 10 g/ha) | Plant response rating, Cheatgrass (cheatgrass; POSTEMERGENCE, Rate 10 g/ha) | Plant response rating, Corn (corn; POSTEMERGENCE, Rate 50 g/ha) | Plant response rating, Sorghum (sorghum; POSTEMERGENCE, Rate 50 g/ha) | Plant response rating, Wild oat (wild oat; POSTEMERGENCE, Rate 10 g/ha) | Plant response rating, Nutsedge (purple nutsedge; POSTEMERGENCE, Rate 50 g/ha)
10: Plant response rating, Chickweed (chickweed; POSTEMERGENCE, Rate 50 g/ha) | Plant response rating, Cotton (cotton; POSTEMERGENCE, Rate 10 g/ha) | Plant response rating, Cotton (cotton; POSTEMERGENCE, Rate 50 g/ha) | Plant response rating, Lambsquarter (lambsquarters; POSTEMERGENCE, Rate 50 g/ha) | Plant response rating, Lambsquarter (lambsquarters; PREEMERGENCE, Rate 50 g/ha) | Plant response rating, Morningglory (morningglory; POSTEMERGENCE, Rate 10 g/ha) | Plant response rating, Morningglory (morningglory; POSTEMERGENCE, Rate 50 g/ha) | Plant response rating, Morningglory (morningglory; PREEMERGENCE, Rate 50 g/ha) | Plant response rating, Rape (rape; POSTEMERGENCE, Rate 10 g/ha) | Plant response rating, Rape (rape; POSTEMERGENCE, Rate 50 g/ha) | Plant response rating, Sugar beet (sugar beet; POSTEMERGENCE, Rate 10 g/ha) | Plant response rating, Sugar beet (sugar beet; POSTEMERGENCE, Rate 50 g/ha) | Plant response rating, Velvetleaf (velvetleaf; PREEMERGENCE, Rate 50 g/ha) | Plant response rating, Wild buckwheat (wild buckwheat; Rate 10 g/ha) | Plant response rating, Wild buckwheat (wild buckwheat; Rate 50 g/ha)
5: Plant response rating, Cheatgrass (cheatgrass; PREEMERGENCE, Rate 50 g/ha) | Plant response rating, Giant foxtail (giant foxtail; POSTEMERGENCE, Rate 10 g/ha) | Plant response rating, Wild oat (wild oat; PREEMERGENCE, Rate 50 g/ha)
